Active and inactive are the calls of the source.
Tests used:
[1] = biological target: T1, Sentrin-specific protease 1 (Homo sapiens, UniProt Q9P0U3); assay: SENP1 catalytic domain blockers, concentration series – biochemical, kinetic FRET, dose response (AID 651697); assay type: functional; conditions: read-out: IC50_Mean
T1 sequence (Q9P0U3 whole entry): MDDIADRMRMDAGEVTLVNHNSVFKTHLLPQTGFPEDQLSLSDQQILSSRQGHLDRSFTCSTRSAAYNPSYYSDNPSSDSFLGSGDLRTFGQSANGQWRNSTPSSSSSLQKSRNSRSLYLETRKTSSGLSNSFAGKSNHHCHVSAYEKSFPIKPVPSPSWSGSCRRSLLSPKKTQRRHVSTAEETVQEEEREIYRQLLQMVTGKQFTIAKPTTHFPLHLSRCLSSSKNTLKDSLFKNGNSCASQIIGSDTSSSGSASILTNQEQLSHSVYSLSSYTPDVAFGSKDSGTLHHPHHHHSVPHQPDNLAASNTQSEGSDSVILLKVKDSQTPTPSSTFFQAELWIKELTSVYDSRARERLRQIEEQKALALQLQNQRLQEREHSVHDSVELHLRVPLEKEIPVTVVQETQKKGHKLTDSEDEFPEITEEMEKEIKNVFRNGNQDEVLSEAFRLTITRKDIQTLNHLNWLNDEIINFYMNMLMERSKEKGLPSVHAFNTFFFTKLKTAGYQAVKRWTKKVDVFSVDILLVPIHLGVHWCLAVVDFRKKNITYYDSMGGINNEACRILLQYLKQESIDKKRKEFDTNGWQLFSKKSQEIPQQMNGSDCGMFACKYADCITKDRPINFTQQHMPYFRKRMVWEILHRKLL

[2] = biological target: T1, Sentrin-specific protease 1; assay: Dose response confirmation of small molecule inhibitors of the catalytic domain of the SUMO protease, SENP1 in a FRET assay.; assay type: functional; conditions: read-out: IC50_Mean
[3] = biological target: FAD-linked sulfhydryl oxidase ALR (Homo sapiens, UniProt P55789); assay: ALR-catalysed DTT oxidation blockers – biochemical, H2O2 detection, luminescence, cherry-pick, dose response (AID 493248)
[4] = biological target: NAD-dependent protein deacylase sirtuin-5, mitochondrial (Homo sapiens, UniProt Q9NXA8); assay: sirtuin-5 deacylation blockers, concentration series – biochemical, fluorescence imaging, cherry-pick, set 5, dose response (AID 720591);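 also: desuccinylation of succinyl peptide AMC substrate read as fluorescence after trypsin release; potency of inhibitors that lower fluorescence and may act on trypsin instead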
[5] = P. falciparum Dd2 growth inhibitors, dose response, SYBR Green, cherry-picked samples (AID 1159567); assay type: functional, cell-based
[6] = toxicity to human hepatoma HepG2 cells – cell-based, cherry-picked samples, cytotoxicity control, dose response (AID 1159577); assay type: functional
[7] = biological target: T2, RNA-editing ligase 1, mitochondrial (Trypanosoma brucei brucei, UniProt P86926); assay: inhibition of trypanosome RNA editing ligase – biochemical, fluorescence, Trypanosoma brucei, dose response (AID 1117295); assay type: functional
T2 sequence (P86926 whole entry): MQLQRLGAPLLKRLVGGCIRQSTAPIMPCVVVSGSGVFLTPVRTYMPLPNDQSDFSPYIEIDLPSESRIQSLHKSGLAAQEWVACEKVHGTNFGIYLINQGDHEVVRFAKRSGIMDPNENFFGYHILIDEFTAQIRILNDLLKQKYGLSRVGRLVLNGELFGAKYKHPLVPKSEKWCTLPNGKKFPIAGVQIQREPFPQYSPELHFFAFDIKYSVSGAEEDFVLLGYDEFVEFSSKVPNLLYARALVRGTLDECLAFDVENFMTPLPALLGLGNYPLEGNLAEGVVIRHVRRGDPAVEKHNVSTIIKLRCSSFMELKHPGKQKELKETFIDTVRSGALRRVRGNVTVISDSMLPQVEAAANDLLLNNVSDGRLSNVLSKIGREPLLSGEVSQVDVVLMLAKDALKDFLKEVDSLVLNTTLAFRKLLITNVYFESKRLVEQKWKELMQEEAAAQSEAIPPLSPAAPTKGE

Kallikrein-7 = Kallikrein-7 (Homo sapiens, UniProt P49862); assay: Fluorescence Intensity-based biochemical primary high throughput dose response assay to identify activators of kallikrein-7 (K7) zymogen.
[8] = biological target: T3, Methionyl-tRNA synthetase, putative (Trypanosoma brucei brucei, UniProt Q38C91); assay type: functional, Trypanosoma brucei brucei strain 927/4 GUTat10.1;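 also: Read-out by fluorescence polarization, run as a confirmatory high-throughput counterscreen; potency of MetRS inhibitors measured by reduced AMP formation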
T3 sequence (Q38C91 whole entry): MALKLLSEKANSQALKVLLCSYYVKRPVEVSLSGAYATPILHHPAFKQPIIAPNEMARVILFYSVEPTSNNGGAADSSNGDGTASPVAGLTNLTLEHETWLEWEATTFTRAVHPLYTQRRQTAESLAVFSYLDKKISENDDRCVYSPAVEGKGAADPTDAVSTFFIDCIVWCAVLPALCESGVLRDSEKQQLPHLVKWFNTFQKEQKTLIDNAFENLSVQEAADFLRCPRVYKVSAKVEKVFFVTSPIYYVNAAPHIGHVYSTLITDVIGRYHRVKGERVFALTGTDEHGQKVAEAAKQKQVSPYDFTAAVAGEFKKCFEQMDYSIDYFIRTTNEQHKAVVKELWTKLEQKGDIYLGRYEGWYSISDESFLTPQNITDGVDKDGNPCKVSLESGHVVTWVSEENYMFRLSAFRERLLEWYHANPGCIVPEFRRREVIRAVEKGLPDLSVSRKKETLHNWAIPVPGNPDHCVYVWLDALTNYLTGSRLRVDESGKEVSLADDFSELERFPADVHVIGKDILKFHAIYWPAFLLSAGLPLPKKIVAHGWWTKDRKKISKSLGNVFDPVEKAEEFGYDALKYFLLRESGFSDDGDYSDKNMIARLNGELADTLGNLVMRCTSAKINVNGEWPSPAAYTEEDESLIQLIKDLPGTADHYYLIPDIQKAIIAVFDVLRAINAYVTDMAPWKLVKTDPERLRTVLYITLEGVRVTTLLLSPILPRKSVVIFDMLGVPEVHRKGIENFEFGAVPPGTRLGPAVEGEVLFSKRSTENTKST

[9] = Counterscreen for inhibitors of Trypanosoma brucei methionyl tRNA synthetase (MetRS): Luminescence-based cell-based high throughput dose response assay to identify compounds that are cytotoxic to Jurkat human T lymphocyte cells.; assay type: functional
[10] = biological target: T4, Long-chain-fatty-acid--AMP ligase FadD28 (Mycobacterium tuberculosis, UniProt P9WQ59); assay: Fluorescence polarization aasay to screen for inhibitors that compete for the binding of FadD28 to a bisubstrate Measured in Biochemical System Using Plate Reader - 2147-01_Inhibitor_Dose_CherryPick_Activity.; assay type: functional, Mycobacterium tuberculosis H37Rv
T4 sequence (P9WQ59 whole entry): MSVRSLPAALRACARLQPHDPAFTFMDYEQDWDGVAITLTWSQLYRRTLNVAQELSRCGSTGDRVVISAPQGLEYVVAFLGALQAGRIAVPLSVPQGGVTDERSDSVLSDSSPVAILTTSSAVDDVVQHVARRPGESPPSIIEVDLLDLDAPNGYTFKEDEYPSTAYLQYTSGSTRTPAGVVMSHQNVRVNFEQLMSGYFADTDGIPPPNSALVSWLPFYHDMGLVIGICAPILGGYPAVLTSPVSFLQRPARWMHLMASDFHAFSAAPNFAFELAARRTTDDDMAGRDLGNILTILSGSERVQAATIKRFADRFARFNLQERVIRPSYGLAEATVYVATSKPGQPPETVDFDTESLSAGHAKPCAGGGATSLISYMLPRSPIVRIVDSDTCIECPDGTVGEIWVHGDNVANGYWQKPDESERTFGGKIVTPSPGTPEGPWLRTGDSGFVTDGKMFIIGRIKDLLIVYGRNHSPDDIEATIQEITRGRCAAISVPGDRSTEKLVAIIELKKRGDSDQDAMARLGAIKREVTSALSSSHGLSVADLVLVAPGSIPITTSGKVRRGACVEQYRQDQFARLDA

cells [11] = assay type: functional, cell-based
[12] = biological target: T5, Trace amine-associated receptor 1 (Homo sapiens, UniProt Q96RJ0); assay: Fluorescence-based cell-based high throughput dose response assay to identify agonists of the human trace amine associated receptor 1 (TAAR1).; assay type: functional
T5 sequence (Q96RJ0 whole entry): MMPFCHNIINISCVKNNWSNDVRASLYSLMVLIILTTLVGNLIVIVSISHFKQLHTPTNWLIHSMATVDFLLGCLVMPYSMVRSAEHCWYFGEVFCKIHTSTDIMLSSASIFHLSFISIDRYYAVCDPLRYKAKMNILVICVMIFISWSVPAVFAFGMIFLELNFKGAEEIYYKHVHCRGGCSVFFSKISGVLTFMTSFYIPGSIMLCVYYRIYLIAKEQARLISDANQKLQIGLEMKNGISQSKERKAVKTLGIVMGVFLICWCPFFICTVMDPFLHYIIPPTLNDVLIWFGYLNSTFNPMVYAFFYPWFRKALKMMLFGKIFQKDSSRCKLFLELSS

[13] = biological target: T5, Trace amine-associated receptor 1; assay: Counterscreen for agonists of the human trace amine associated receptor 1 (hTAAR1): Fluorescence-based cell-based high throughput dose response assay to identify hTAAR1 agonist that also desensitize TAAR1 receptor response.; assay type: functional
cells [14] = assay type: functional, cell-based; remark: listed apart in the source

Sequence of NAD-dependent protein deacylase sirtuin-5, mitochondrial (Q9NXA8 whole entry): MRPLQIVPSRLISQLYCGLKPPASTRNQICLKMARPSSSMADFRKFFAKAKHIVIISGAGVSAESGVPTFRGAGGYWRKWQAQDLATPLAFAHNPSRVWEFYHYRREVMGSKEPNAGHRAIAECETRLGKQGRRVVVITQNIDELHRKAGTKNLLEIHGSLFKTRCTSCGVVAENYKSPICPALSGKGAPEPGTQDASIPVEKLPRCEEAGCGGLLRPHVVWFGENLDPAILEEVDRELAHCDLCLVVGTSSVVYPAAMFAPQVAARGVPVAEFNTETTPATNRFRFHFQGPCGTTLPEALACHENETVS
Sequence of Kallikrein-7 (P49862 whole entry): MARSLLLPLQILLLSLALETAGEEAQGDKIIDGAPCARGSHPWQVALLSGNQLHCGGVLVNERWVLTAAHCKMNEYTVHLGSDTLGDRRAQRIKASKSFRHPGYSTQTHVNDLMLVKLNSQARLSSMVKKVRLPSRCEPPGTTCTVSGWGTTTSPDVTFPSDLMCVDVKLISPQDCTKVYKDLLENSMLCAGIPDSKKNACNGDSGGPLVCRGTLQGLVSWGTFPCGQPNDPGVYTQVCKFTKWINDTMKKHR
Sequence of FAD-linked sulfhydryl oxidase ALR (P55789 whole entry): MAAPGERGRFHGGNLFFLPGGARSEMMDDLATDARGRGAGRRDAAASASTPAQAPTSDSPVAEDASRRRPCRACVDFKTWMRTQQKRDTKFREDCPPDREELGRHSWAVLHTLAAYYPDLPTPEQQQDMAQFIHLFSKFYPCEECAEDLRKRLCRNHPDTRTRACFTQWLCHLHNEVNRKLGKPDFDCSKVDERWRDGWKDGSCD

Structure (SMILES): CCCCCn1nnnc1-c1nc2cc3ccccc3cc2nc1O
- IC50 [1]: 4.94 µM (active)
- IC50 [2]: 1.29 µM (active)

Structure (SMILES): COc1cc(/C=C2/SC(=S)N(CC(=O)O)C2=O)ccc1OC(=O)c1ccco1
- AC50 [3]: 3.74 µM (active)
- IC50 [1]: 4.75 µM (active)
- IC50 [2]: 5.86 µM (active)

Structure (SMILES): O=C1NNC(=O)C1c1ccccc1
- AC50 [4]: > 30 µM (inactive)

Structure (SMILES): N#Cc1ccc(-c2ccc([C@@H]3[C@@H]4CN(C(=O)Nc5ccc(C(F)(F)F)cc5)C[C@H]3N4)cc2)cc1
- AC50 [5]: 5.94 µM (active)
- AC50 [6]: 20.5 µM (active)

Structure (SMILES): COC(=O)C1=C(C)N(Cc2ccc(C(F)(F)F)cc2)C(NCC2CC2)=NC1c1ccccc1C(F)(F)F (stereo not given)
- IC50 [7]: > 96.6 µM (inactive)

Structure (SMILES): CCC1CN(C(=O)N2CCC(C(=O)Nc3ccccc3F)CC2)c2ccccc2O1 (stereo not given)
- AC50 [4]: > 30 µM (inactive)

Structure (SMILES): Cc1c(C)c2c(OCC(=O)N[C@@H](CC(C)C)C(=O)O)cc3c(c2oc1=O)CCC(C)(C)O3
- EC50 (Kallikrein-7): > 69.5 µM (inactive)

Structure (SMILES): O=C(CSc1ccc(-c2nc3ccccc3[nH]2)cn1)Nc1ccc(S(=O)(=O)N2CCCC2)cc1
- IC50 [8]: 8.73 µM (active)
- IC50 [9]: 83.3 µM (inactive)
- AC50 [10]: > 100 µM (inactive)

Structure (SMILES): c1ccc2c(c1)CC1CNCc3cccc(c31)S2 (stereo not given)
- IC50 (cells [11]): > 29.9 µM (inactive)
- EC50 [12]: 5.87 µM (active)
- IC50 [13]: 7.1 µM (active)
- EC50 (cells [14]): > 29.9 µM (inactive)

Structure (SMILES): COCCNC(=O)c1cccc(OC2CCN(Cc3ccc(OC(F)F)cc3)CC2)c1
- AC50 [4]: > 30 µM (inactive)

Structure (SMILES): Cc1ccc(NC(=O)CNc2ccccc2N2CCCC2=O)cc1S(=O)(=O)N1CCOCC1
- AC50 [10]: 21.8 µM (active)

Reference: ChEMBL document CHEMBL1201862, “PubChem BioAssay data set” (2004)
